The source of these data is a melting point compilation (Tetko et al.).

For `CC(C)(c1ccccc1)c1ccccc1`, the melting point (commonly the temperature, or range, at which the solid turns liquid) was 29 °C. To `Cn1ccc(-c2ccc(C(=O)Oc3c(F)c(F)c(F)c(F)c3F)cc2)n1` belongs 122 to 124 °C. `ClCc1cc(Br)cc2c1OCOC2` had a melting point of 103 °C. To `O=C(C1CCNCC1)N1CCCCCC1` belongs 41 to 47 °C; to `N#CCCc1ccc(O)cc1`, 56 °C; to `CCOC(=O)c1ccc2c(c1)OCO2`, 18.5 °C. For `O=C(O)c1c(F)c(F)c(F)c(F)c1[N+](=O)[O-]` the value was 134 to 139 °C. For the compound `Cc1n[nH]c2c(=O)n(Cc3ccc(Cl)cc3)c(C)nc12`, the melting point lay within 218 to 220 °C. For `Clc1cc2oc3cc(Cl)c(Cl)cc3c2cc1Cl` the value was 227 °C. For `Nc1ccc(Cl)cc1I` the value was 40 to 42 °C; for `C=CC1CC=CCC1` (centres undefined), -109 °C; for `CC(C)NCC(O)COc1ccc(O)cc1` (centres undefined), 128 °C.

In turn, `Nc1cc(Cl)nc(N)n1` had a melting point of 201 °C. Turning to `COC(=O)C1Cc2ccccc2N1C(=O)OC(C)(C)C` (centres undefined), the melting point is 73 to 75 °C. For the compound `O=C(Cn1ccnc1[N+](=O)[O-])NCc1ccccc1`, the melting point worked out at 189 °C. For the compound `O=C(NNc1ccccc1)C1CCCCC1`, the melting point is 164 °C. For `O=C(N[C@H](Cc1ccc(Cl)cc1)C(=O)O)OCC1c2ccccc2-c2ccccc21`, the melting point was 147 °C.

`c1ccc(-c2ccc(-c3cnc(-c4ccc(-c5ccccc5)cc4)o3)cc2)cc1` returned a melting point of 239 °C. To `CCOC(=O)C(CCC(=O)O)(CCC(=O)O)C(C)=O` belongs 105 to 108 °C; to `O=[N+]([O-])c1ccc(-c2nc3n(c2[N+](=O)[O-])CCS3)cc1`, 203 to 205 °C. `COC(=O)C1C2(C)C=CC(O2)C1(OC)OC` (centres undefined) returned a melting point of 60 to 62 °C. The compound `COc1ncc(F)cc1F` yielded a melting point of 38 °C. Take `C1=CC2OC1c1ccccc12`: the melting point lay in the range of 53 to 58 °C. For `O=C(O)c1cccc(O)c1[N+](=O)[O-]` the value was 179 °C; for `CCN(CC)C(=O)C1C=C2c3cccc4[nH]c(Br)c(c34)CC2N(C)C1` (centres undefined), 124 °C.

For `Cc1ccc(C(=O)CCCCl)cc1`, the melting point came out at 31.5 °C. As to `CC(F)(F)CCl`, the melting point is -56.2 °C. Consider `CC(CCl)OP(=O)(OC(C)CCl)OC(C)CCl` (centres undefined), for which the melting point was -40 °C.

The compound `CC(=O)c1ccc(F)cc1Br` had a melting point of 48 to 50 °C. To `Cc1cc2c(c(C)c1C)C(=O)C2` belongs 103 °C; to `Clc1ncnc2sc3c(c12)CCC3`, 108 to 110 °C; to `Cn1nc(-c2ccccc2)cc1C(=O)Cl`, 88 to 89 °C. `COCc1cc(O)nc(S)n1` returned a melting point of 220 to 223 °C. For `O=C(CCl)Oc1ccc([N+](=O)[O-])cc1` the value was 73 to 75 °C; for `NS(=O)(=O)c1cccc([N+](=O)[O-])c1`, 167 °C. As for `O=C1C[C@@H](C(=O)O)c2ccccc21`, the melting point worked out at 113 °C.

Regarding `CN1CCc2cc3c(cc2C1C1OC(=O)c2c1ccc1c2OCO1)OCO3` (centres undefined), the melting point was found to be 194 °C.

In turn, `O=C(O)c1ccccc1C1c2ccc(O)cc2Oc2cc(O)ccc21` had a melting point of 126 °C.

As for `c1ccc(C(c2ccccc2)c2ccccn2)cc1`, the melting point was 54 to 61 °C.

`CCOC(=O)C(C)(C)C1(c2ccc(OC)cc2)CCC(=O)O1` (centres undefined) had a melting point of 59 °C.

The compound `Nc1ccc(C=C/C(=N/O)c2ccccc2)cc1` registered a melting point of 138 to 139 °C. Turning to `Cc1ccc(NC(N)=S)cc1`, the melting point was in the range of 186 to 188 °C. `Cc1cc(C(=O)O)ccc1F`: the melting point was determined as 167 °C. The compound `S=C=Nc1cc(Cl)cc(Cl)c1` returned a melting point of 46 °C. For `CCOC(=O)c1cn(C(C)=O)nc1N`, the melting point worked out at 110 °C.

`NC(=O)NN=C(c1cc2ccccc2o1)c1cc2ccccc2o1` showed a melting point of 189 to 190 °C. Turning to `O=C(Oc1cccc2cccnc12)c1ccccc1`, the melting point is 119 °C. The compound `CCOC(=O)C12CCC(C(=O)OCC)(CC1=O)C(=O)C2` returned a melting point of 111 to 113 °C.

`CC1(C)C(=O)OC2=C(CC3C4CC=C5CC(O)CCC5(C)C4CCC23C)C1c1ccccc1` (centres undefined) had a melting point of 230 to 235 °C. For `OCC1OC(Oc2ccc3cc(Br)ccc3c2)C(O)C(O)C1O` (centres undefined) the value was 218 to 220 °C; for `CCc1c(C(=O)O)c(=O)cnn1-c1ccc(Cl)cc1`, 269 °C; for `CC(C)(C)C(=O)Nc1ncccc1C=O`, 87 to 91 °C. For `O=C(O)C1(c2cccc(F)c2)CCCC1` the value was 149 to 153 °C. To `CCOC(=O)C1=C(C)NC(=O)NC1C` (centres undefined) belongs 189 to 190 °C; to `Clc1cc2oc3c(Cl)c(Cl)ccc3c2c(Cl)c1Cl`, 206 °C. With `CC1C(=O)CCC2C1(C)CCC1C2(C)CCC2(C)C3CC(C)(C)CCC3(C)CCC12C` (centres undefined), the melting point was 263 °C. `O=[N+]([O-])c1ccc(C=Cc2cccc(CO)n2)o1` gave a melting point of 170 °C. To `O=C1c2ccccc2C(=O)c2c1ccc([N+](=O)[O-])c2[N+](=O)[O-]` belongs 341 °C; to `Cc1ccc(C(c2ccc(C)o2)c2cc(I)ccc2O)o1`, 104 °C. In the case of `O=C(Cl)c1ccc(-c2csnn2)cc1`, the melting point was in the range of 168 to 171 °C. To `O=c1c2ccccc2[nH]c(=S)n1Cc1ccccc1` belongs 256 to 257 °C. To `FC(F)(F)c1cccnc1Cl` belongs 39 °C; to `CC1(C)C(=O)NC1c1ccccc1` (centres undefined), 150 °C. `C#CCOc1cc(-n2nc3n(c2=O)CCCC3)c(Cl)cc1Cl`: the melting point stood at 168 °C. To `Nc1c(S(=O)(=O)c2ccccc2)csc1C(=O)O` belongs 174 to 176 °C. To `O=C1/C(=N\Nc2ccccc2)C(c2ccc([N+](=O)[O-])cc2)=NN1c1ccccc1` belongs 239 to 240 °C; to `COc1ccc2nc(C#N)sc2c1`, 128 to 131 °C; to `O=CCO`, 97 °C. Take `N#Cc1c(O)ccc([N+](=O)[O-])c1O`: the melting point lay in the range of 239 to 240 °C. In the case of `CCOC(=O)c1nn(-c2ccc(C)cc2)c(C)c1C(=O)c1noc(-c2ccc([N+](=O)[O-])cc2)c1S(=O)(=O)c1ccccc1`, the melting point worked out at 189 °C. For `ClC1=C(Cl)C2(Cl)C3C(Cl)OC(Cl)C3C1(Cl)C2(Cl)Cl` (centres undefined) the value was 121 °C; for `Cc1ccc2c(c1)C(=O)OC2=O`, 88 to 92 °C.

`Nc1c(Br)cc(Br)cc1[N+](=O)[O-]` showed a melting point of 130 °C. To `C(=C(c1ccccc1)c1ccccc1)=C(c1ccccc1)c1ccccc1` belongs 140 °C; to `O=C(O)CCCc1ccc2c(c1)OCCO2`, 76 to 78 °C. For `CC(=O)CS(=O)(=O)c1ccc(C)cc1` the value was 52 to 54 °C. To `CCCCC1CO1` (centres undefined) belongs 94 °C; to `O=C(Cl)c1cc2cc([N+](=O)[O-])ccc2s1`, 157 to 158 °C; to `Cc1ccc(C)c2ncccc12`, 4.5 °C.

Take `O=Cc1coc2c(Cl)cc(Cl)cc2c1=O`: the melting point was in the range of 169 to 174 °C. Compound `CCOC(=O)C(Br)CCC(Br)C(=O)OCC` (centres undefined) displayed a melting point of 66 to 68 °C. For `CCOC(=O)c1nnn2c3ccccc3c(=O)n(C)c12` the value was 149 to 150 °C; for `O=C(O)C(CCBr)(c1ccccc1)c1ccccc1`, 135 to 137 °C; for `CC1=C2C3OC(=O)C(C)C3CCC2(C)C=CC1=O` (centres undefined), 175 °C.

In the case of `CCOC(=O)c1cn[nH]c1NC(=O)Nc1ccccc1`, the melting point lay in the range of 242 to 245 °C. To `Cc1nnc2sc(SCC(=O)O)nn2c1=O` belongs 201 °C; to `c1ccc2c(c1)cnc1ccccc12`, 107 °C; to `CC(N)C(O)c1cccc(O)c1` (centres undefined), 108 °C. For `OCc1cc2cc(Br)ccc2o1` the value was 101 to 103 °C. Compound `COc1ccc2c(c1)CC2C#N` (centres undefined) showed a melting point of 48 to 56 °C. For `COc1ccc(C(N)=O)cc1OC` the value was 164 °C. To `Nc1cccc(-c2ccccc2)c1` belongs 33 °C. To `COc1ccc(C(=O)C(=O)c2ccc(OC)cc2)cc1` belongs 131 to 134 °C; to `CCCCCCCCCCCCCCCC(=O)CC`, 51 °C; to `CCOC(=O)c1ccc(O)c(OC)c1`, 44 °C. With `Cc1ccc(N2C(=O)C3ON=C(C(=O)c4cccs4)C3C2=O)cc1` (centres undefined), the melting point was 160 °C. With `CCOc1ccc(C=O)cc1OCC`, the melting point amounted to 22 °C. For `O=S(=O)(Cl)Cc1cccc(F)c1` the value was 39 to 41 °C; for `C=COCCCCCCCCCCCCCCCCCC`, 30 °C; for `NCc1cc2cc(Br)ccc2o1`, 39 to 40 °C. For `COC(CN1CCN(CC(O)C(OC)c2ccccc2)CC1)c1ccccc1` (centres undefined) the value was 83 °C; for `CCCc1ccc(NC(C)=O)cc1`, 98 to 100 °C. `N#Cc1sc2nc(-c3ccccc3)cc(C(F)(F)F)c2c1N`: the melting point was 236 to 238 °C.

With `NC(=NO)c1cccc(C(F)(F)F)c1`, the melting point fell in the range of 82 to 88 °C. For `O=C(c1ccccc1)N(CC(=Nc1ccccc1)Nc1ccccc1)c1ccccc1`, the melting point is 142 °C. In turn, `Cc1ccc(N=Nc2ccc(N(C)C)cc2)cc1` had a melting point of 165 to 167 °C.

As for `COC(=O)COC(=O)c1ccc2c(O)c(C(=O)OC)oc2c1`, the melting point came out at 130 °C.

Take `O=C(O)C(Cc1ccccc1)C(=O)O`: the melting point worked out at 121 °C. For `NCc1ccc(CN2CCOCC2)cc1` the value was 54 to 55 °C.
